According to patent US11192850B2, “N-aryl oxamic acids” (Purdue Research Foundation, priority 2020, dated 2021):
Like-named read-outs stand apart in the source and are kept apart here.

Experiments:
[1] = biological target: mPTPB (Mycobacterium tuberculosis (strain ATCC 25618 / H37Rv), UniProt I6WXK4); format: biochemical
[2] = biological target: PTP1B (Homo sapiens (Human), UniProt P18031); assay: pNPP inhibition assay against PTP1B; format: biochemical
[3] = biological target: SHP2 (Homo sapiens (Human), UniProt Q06124); assay: pNPP inhibition assay against SHP2; format: biochemical
Chain of SHP2 (Q06124 247-517): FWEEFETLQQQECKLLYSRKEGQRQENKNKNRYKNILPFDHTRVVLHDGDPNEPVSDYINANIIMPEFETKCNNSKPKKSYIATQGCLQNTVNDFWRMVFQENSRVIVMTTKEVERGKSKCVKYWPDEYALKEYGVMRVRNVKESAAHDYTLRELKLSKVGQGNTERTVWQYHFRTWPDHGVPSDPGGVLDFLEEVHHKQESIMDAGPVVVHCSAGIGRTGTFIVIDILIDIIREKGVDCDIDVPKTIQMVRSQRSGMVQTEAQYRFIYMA

[4] = biological target: SHP1 (Homo sapiens (Human), UniProt P29350); assay: pNPP inhibition assay against SHP1; format: biochemical
Chain of SHP1 (P29350 244-515): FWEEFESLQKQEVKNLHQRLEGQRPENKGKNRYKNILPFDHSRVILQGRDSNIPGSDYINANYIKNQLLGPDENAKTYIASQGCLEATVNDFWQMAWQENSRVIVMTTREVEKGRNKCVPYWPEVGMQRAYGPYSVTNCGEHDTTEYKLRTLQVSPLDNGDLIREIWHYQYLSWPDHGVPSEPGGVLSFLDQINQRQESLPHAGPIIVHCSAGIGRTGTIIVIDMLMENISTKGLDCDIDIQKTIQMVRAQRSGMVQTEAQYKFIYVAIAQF

[5] = biological target: TC-PTP (Homo sapiens (Human), UniProt P17706); assay: pNPP inhibition assay against TC-PTP; format: biochemical; conditions: pNPP at Km of the PTP
Chain of TC-PTP (P17706 5-275): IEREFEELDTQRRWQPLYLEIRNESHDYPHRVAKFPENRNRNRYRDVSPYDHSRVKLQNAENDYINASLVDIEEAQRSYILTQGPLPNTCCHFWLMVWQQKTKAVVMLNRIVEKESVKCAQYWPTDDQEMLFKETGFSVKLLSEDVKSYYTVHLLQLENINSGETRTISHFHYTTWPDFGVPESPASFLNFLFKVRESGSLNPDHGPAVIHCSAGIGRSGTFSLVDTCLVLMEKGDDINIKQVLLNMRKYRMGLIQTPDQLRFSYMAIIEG

[6] = biological target: LYP (Homo sapiens (Human), UniProt Q9Y2R2); assay: pNPP inhibition assay against LYP; format: biochemical; conditions: pNPP at Km of the PTP
Chain of LYP (Q9Y2R2 24-289, species assumed): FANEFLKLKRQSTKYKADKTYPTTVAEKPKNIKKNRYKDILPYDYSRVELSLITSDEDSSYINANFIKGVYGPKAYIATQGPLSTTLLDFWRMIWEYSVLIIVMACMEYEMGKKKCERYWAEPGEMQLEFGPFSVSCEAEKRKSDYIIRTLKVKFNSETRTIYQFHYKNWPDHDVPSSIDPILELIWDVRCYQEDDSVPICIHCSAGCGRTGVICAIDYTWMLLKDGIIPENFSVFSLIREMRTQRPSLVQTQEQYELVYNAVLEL

[7] = biological target: MKP5 (Homo sapiens (Human), UniProt Q9Y6W6); assay: pNPP inhibition assay against MKP5; format: biochemical; conditions: pNPP at Km of the PTP
Chain of MKP5 (Q9Y6W6 321-464, species assumed): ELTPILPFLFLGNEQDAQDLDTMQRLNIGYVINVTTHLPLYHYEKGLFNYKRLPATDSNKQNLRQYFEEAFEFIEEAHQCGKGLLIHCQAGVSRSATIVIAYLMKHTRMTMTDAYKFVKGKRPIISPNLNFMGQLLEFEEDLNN

[8] = biological target: LMPTP-1 (Homo sapiens (Human), UniProt P24666); format: biochemical
Chain of LMPTP-1 (P24666 whole entry, looked up): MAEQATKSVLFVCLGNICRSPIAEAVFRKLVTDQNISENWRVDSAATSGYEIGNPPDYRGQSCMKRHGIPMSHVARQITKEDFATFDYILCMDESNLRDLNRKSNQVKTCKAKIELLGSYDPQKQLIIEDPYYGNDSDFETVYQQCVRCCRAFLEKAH

[9] = biological target: PTP-PEST (Homo sapiens (Human), UniProt Q05209); assay: pNPP inhibition assay against PTP-PEST; format: biochemical; conditions: pNPP at Km of the PTP
Chain of PTP-PEST (Q05209 28-293, species assumed): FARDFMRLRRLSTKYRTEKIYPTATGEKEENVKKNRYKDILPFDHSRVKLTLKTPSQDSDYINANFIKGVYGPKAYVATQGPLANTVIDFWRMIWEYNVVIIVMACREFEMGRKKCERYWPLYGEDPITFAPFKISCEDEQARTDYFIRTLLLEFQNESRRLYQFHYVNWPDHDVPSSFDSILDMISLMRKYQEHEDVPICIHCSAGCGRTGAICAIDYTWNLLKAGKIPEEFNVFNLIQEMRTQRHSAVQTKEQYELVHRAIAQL

[10] = biological target: PTPγ (Homo sapiens (Human), UniProt P23470); assay: pNPP inhibition assay against PTPγ; format: biochemical; conditions: pNPP at Km of the PTP
Chain of PTPγ (P23470 763-1445): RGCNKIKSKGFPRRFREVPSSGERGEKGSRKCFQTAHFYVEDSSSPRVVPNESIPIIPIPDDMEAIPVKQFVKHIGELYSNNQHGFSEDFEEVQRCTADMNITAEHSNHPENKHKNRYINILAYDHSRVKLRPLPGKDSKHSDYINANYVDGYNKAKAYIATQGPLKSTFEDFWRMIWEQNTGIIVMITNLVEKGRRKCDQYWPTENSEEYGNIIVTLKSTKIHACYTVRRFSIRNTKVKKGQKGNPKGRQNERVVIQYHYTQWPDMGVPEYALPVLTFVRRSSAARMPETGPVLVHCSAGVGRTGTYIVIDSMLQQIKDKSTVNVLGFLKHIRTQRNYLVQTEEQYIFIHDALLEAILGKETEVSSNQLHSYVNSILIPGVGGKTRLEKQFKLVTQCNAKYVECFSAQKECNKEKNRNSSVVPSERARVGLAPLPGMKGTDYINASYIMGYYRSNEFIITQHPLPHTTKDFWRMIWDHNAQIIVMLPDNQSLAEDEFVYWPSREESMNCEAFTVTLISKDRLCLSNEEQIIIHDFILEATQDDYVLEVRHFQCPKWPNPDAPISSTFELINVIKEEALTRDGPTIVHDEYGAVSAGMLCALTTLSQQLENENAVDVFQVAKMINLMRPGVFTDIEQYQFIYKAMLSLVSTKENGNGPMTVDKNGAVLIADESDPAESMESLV

[11] = biological target: mPTPA (Mycobacterium tuberculosis (strain ATCC 25618 / H37Rv), UniProt P9WIA1); assay: biochemical
[12] = Mouse liver microsomal stability; format: in vitro ADME; conditions: for Microsome Stability, % remaining: Mouse, after 60 min at 37° C.
Description: A sufficient oral dosage must survive first-pass clearance through the liver before reaching its biological target. The majority of drugs/xenobiotics undergo phase I metabolism, mediated by the cytochrome P450 (CYP450) family of heme-thiolate proteins predominantly in the liver. Although mouse liver microsomal (MLM) stability studies are not a perfect substitute for in vivo metabolic clearance studies, but they serve as an initial […] model system that can correlate well with human liver microsomal (HLM) stability and in vivo activity in mice. To this end, compounds 4h, 4k, 4t, 4u, and 4v were allowed to react with mouse liver microsomes and the fraction of remaining parent compound over time was determined. […] Incorporation of fluorine into drug candidates generally improves their potency, bioavailability, and metabolic stability. In addition, fluorinated molecules are in general, nontoxic and mimic the corresponding nonfluorinated analogs in their stereoelectronic properties, so the drug's affinity for the receptor either remains the same or, in some cases increases. […] So, the loss of compounds tested here is attributed only to oxidative Phase I metabolism. The high microsomal stability of these compounds could be exploited pharmacologically.
Mouse (CD-1) pooled liver microsomes purchased from Fisher Scientific, IL, USA (0.5 mg/mL, Corning Gentest 3P, cat#452702), and the assay procedures were followed as previously reported. A solution of mouse liver microsomes and 1 mM of co-factor NADPH in 1 ml of phosphate buffer saline (pH=7.4) was prewarmed to 37° C. in an Eppendorf tube. Then 10 μL of a test solution (10 mM DMSO stock) was added to initiate the reaction. Verapamil-HCl was used as a positive control. […] The incubation mixture was kept at 37° C., and 50 μL aliquots were taken at times of 0, 5, 10, 15, 30 or 60 min. Each of the aliquot was quenched using 200 μL of ice-cold acetonitrile. The mixtures were vigorously vortexed and centrifuged to remove the precipitated protein and the supernatants were analyzed by an Agilent Technologies 6470 series, triple quadrupole LC/MS spectrometer to quantitate the remaining parent compound. The percent of the parent compound remaining was calculated from the formula: % parent compound remaining=(concentration at 60 min/concentration at 0 min)*100

[13] = biological target: HePTP (Homo sapiens (Human), UniProt P35236); assay: pNPP inhibition assay against HePTP; format: biochemical; conditions: pNPP at Km of the PTP
[14] = biological target: FAP-1 (Homo sapiens (Human), UniProt Q12923); assay: pNPP inhibition assay against FAP-1; format: biochemical; conditions: pNPP at Km of the PTP
[15] = biological target: DEP-1 (Homo sapiens (Human), UniProt Q12913); assay: pNPP inhibition assay against DEP-1; format: biochemical; conditions: pNPP at Km of the PTP
Chain of DEP-1 (Q12913 1041-1298, species assumed): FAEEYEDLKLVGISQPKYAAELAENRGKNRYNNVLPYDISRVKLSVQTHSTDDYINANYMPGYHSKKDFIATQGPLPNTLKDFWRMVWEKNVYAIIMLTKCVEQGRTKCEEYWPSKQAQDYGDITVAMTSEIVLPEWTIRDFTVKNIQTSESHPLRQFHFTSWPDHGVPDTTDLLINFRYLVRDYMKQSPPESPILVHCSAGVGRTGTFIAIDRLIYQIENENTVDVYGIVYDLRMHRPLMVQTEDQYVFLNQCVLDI

[16] = biological target: Laforin (Homo sapiens (Human), UniProt O95278); assay: pNPP inhibition assay against Laforin; format: biochemical; conditions: pNPP at Km of the PTP
Chain of Laforin (O95278 156-323, species assumed): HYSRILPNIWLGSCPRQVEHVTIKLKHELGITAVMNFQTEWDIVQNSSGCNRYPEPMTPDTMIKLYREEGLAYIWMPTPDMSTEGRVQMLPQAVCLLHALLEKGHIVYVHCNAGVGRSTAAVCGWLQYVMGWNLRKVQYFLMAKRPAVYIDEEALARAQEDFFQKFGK

[17] = biological target: PTP-MEG2 (Homo sapiens (Human), UniProt P43378); assay: pNPP inhibition assay against PTP-MEG2; format: biochemical; conditions: pNPP at Km of the PTP
Chain of PTP-MEG2 (P43378 303-574): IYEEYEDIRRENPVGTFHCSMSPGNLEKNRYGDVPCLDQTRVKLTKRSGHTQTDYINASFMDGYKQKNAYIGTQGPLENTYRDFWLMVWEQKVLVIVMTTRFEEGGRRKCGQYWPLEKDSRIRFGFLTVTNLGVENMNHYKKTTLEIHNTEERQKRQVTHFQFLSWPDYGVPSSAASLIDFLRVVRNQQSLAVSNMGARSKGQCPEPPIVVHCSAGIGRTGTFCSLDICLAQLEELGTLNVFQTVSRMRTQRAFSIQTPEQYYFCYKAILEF

[18] = biological target: MKP3 (Homo sapiens (Human), UniProt Q16828); assay: pNPP inhibition assay against MKP3; format: biochemical; conditions: pNPP at Km of the PTP
Chain of MKP3 (Q16828 206-349, species assumed): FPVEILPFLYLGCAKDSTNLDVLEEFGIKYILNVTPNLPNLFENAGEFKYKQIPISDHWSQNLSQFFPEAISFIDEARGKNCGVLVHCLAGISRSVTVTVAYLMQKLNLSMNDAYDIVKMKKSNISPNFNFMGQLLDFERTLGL

[19] = biological target: CD45 (Homo sapiens (Human), UniProt P08575); assay: pNPP inhibition assay against CD45; format: biochemical; conditions: pNPP at Km of the PTP
Chain of CD45 (P08575 599-1306, species assumed): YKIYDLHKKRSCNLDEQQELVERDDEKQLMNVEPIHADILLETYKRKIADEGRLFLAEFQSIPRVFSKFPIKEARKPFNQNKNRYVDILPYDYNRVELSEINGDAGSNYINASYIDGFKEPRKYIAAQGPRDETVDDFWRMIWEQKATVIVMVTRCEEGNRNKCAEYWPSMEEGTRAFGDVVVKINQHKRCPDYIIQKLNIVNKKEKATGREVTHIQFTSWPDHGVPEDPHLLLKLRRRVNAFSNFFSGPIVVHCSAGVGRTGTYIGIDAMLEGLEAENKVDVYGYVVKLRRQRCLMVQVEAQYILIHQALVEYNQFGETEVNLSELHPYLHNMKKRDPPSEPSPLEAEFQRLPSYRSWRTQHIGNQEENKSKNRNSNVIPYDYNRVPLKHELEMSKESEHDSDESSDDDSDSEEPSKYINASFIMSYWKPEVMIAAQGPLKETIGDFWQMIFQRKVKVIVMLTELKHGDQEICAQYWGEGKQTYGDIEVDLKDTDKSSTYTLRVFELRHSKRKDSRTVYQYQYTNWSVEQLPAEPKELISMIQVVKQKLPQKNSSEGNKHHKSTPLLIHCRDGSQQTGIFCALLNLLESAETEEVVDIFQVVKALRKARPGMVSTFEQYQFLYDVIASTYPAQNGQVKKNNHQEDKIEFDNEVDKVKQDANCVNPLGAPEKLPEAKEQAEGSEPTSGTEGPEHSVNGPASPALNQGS

[20] = biological target: CDC14A (Homo sapiens (Human), UniProt Q9UNH5); assay: pNPP inhibition assay against CDC14A; format: biochemical; conditions: pNPP at Km of the PTP
Chain of CDC14A (Q9UNH5 179-336, species assumed): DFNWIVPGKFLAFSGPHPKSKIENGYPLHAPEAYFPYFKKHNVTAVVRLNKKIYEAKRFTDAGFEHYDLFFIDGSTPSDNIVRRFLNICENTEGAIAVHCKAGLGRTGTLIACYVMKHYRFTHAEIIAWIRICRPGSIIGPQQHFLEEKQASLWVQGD

[21] = biological target: STEP (Homo sapiens (Human), UniProt P54829); assay: pNPP inhibition assay against STEP; format: biochemical; conditions: pNPP at Km of the PTP
[22] = biological target: VHR (Homo sapiens (Human), UniProt P51452); assay: pNPP inhibition assay against VHR; format: biochemical; conditions: pNPP at Km of the PTP
Chain of VHR (P51452 28-179, species assumed): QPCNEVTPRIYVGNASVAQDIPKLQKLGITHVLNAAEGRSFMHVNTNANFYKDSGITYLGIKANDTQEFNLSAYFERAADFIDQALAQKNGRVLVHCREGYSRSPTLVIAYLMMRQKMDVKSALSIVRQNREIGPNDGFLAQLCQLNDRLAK

[23] = biological target: PTPα (Homo sapiens (Human), UniProt P18433); assay: pNPP inhibition assay against PTPα; format: biochemical; conditions: pNPP at Km of the PTP
[24] = biological target: PTPβ (Homo sapiens (Human), UniProt P23467); assay: biochemical; conditions: pNPP at Km of the PTP
[25] = biological target: PTPμ (Homo sapiens (Human), UniProt P28827); assay: pNPP inhibition assay against PTPμ; format: biochemical; conditions: pNPP at Km of the PTP
[26] = Log D by shake flask method; format: physicochemical; conditions: n-octanol and pH 7.4 PBS
Description: To determine the lipophilicity of our inhibitors, the Log D at pH 7.4 was measured using the shake flask method. […] The tubes were shaken for 8 hours, centrifuged at 10000 rpm for 5 minutes then n-octanol and phosphate buffered saline layers separated. […] The ratios of AUC of the peaks were used to calculate the Log D in accordance with the equation: Log D=Log10(AUC of octanol layer/AUC of phosphate buffered saline layer)

[27] = Kinetic solubility in pH 7.4 PBS; format: physicochemical; conditions: pH 7.4 PBS buffer
Description: The resulting mixture was stirred at 500 rpm for 90 minutes and then filtered using 0.45 μm PVDF membrane filter. After filtration, the concentration of corresponding compound was determined by HPLC, comparing the AUC obtained with that from a standard solution of the compound. Data represent the mean (t standard deviation, SD) of three separate experiments, performed in triplicate.

[28] = Solubility observed for analogs (qualitative)

Chain of PTP1B (P18031 3-277): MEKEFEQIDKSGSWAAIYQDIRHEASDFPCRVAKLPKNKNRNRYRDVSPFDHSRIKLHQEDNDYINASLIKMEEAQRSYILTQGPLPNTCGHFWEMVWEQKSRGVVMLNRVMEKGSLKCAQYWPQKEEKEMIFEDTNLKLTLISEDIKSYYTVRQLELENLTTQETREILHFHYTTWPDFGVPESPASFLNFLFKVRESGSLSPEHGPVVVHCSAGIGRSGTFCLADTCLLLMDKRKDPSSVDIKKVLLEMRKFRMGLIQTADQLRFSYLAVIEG
Chain of mPTPB (I6WXK4 whole entry, looked up): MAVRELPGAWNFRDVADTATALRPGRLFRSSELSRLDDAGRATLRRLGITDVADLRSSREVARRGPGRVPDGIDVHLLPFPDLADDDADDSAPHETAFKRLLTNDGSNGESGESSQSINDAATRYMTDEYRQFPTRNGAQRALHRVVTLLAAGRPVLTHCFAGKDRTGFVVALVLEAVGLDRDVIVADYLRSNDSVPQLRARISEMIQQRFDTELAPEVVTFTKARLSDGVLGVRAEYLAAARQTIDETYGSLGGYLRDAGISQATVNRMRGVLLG

Which IC50 [1] does the source give for `CN(C)c1cc(O)c(C(=O)O)cc1C#Cc1cccc(NC(=O)C(=O)O)c1` [Compound 4g, 5-((3-(carboxyformamido)phenyl)ethynyl)-4-(dimethylamino)-2-hydroxybenzoic Acid] here?
The IC50 was 0.16 µM.

And the IC50 [2]?
The IC50 was 45.1 ± 4.5 µM.

What about the IC50 [3] of the same molecule?
The IC50 was 47.5 ± 3.5 µM.

And the IC50 [4]?
The IC50 was 38.5 ± 4.2 µM.

And the IC50 [5]?
The IC50 was > 50 µM.

What about the IC50 [6] of the same molecule?
The IC50 was > 50 µM.

What about the IC50 [7] of the same molecule?
The IC50 was > 50 µM.

What about the IC50 [8] of the same molecule?
Its IC50 is 34.5 µM.

And the IC50 [9]?
The IC50 was > 50 µM.

What about the IC50 [10] of the same molecule?
Its IC50 is > 50 µM.

And the IC50 [11]?
The IC50 was > 50 µM.

For `CC(C)(C)c1ccc(C#Cc2ccc(NC(=O)C(=O)O)cc2)cc1` [Compound 4h, 2-((4-((4-(tert-butyl)phenyl)ethynyl)phenyl)amino)-2-oxoacetic Acid], which IC50 ([1]; pNPP assay, pH 7.0, 3.0 mM pNPP) is on record?
Its IC50 is 0.026 ± 0.005 µM.

And the IC50 ([2]; pNPP at Km of the PTP)?
The IC50 was > 50 µM.

What about the IC50 ([3]; pNPP at Km of the PTP) of the same molecule?
Its IC50 is > 50 µM.

And the IC50 ([4]; pNPP at Km of the PTP)?
Its IC50 is > 50 µM.

And the “Microsome Stability, % remaining” value [12]?
The value was 27 ± 2.4%.

And the microsomal stability ranking ([12]; mouse liver microsomes, last time point)?
Its microsomal stability ranking is “least stable”.

With `O=C(O)C(=O)Nc1ccc(C#Cc2ccc(C(F)(F)F)cc2)cc1` [Compound 4k, 2-oxo-2-((4-((4-(trifluoromethyl)phenyl)ethynyl)phenyl)amino)acetic Acid] as the molecule, how does the IC50 ([2]; pNPP at Km of the PTP) read?
The IC50 was > 50 µM.

And the IC50 ([3]; pNPP at Km of the PTP)?
The IC50 was > 50 µM.

What about the IC50 ([4]; pNPP at Km of the PTP) of the same molecule?
The IC50 was > 50 µM.

What about the IC50 [5] of the same molecule?
Its IC50 is > 50 µM.

What about the IC50 [6] of the same molecule?
The IC50 was > 50 µM.

What about the IC50 [13] of the same molecule?
The IC50 was > 50 µM.

What about the IC50 [14] of the same molecule?
The IC50 was > 30 µM.

And the IC50 [15]?
The IC50 was > 30 µM.

What about the IC50 [16] of the same molecule?
The IC50 was > 30 µM.

What about the IC50 [17] of the same molecule?
The IC50 was > 30 µM.

And the IC50 [18]?
Its IC50 is > 30 µM.

And the IC50 [7]?
The IC50 was > 30 µM.

And the IC50 [9]?
Its IC50 is > 30 µM.

What about the IC50 [19] of the same molecule?
Its IC50 is > 30 µM.

And the IC50 [20]?
The IC50 was > 30 µM.

What about the IC50 [21] of the same molecule?
Its IC50 is > 30 µM.

And the IC50 [22]?
Its IC50 is > 30 µM.

What about the IC50 [23] of the same molecule?
Its IC50 is > 30 µM.

And the IC50 [24]?
Its IC50 is > 30 µM.

And the IC50 [25]?
Its IC50 is > 30 µM.

And the IC50 [10]?
The IC50 was > 30 µM.

What about the LogD [26] of the same molecule?
The LogD was 1.97.

And the “Aq. Sol (μM), kinetic solubility” value [27]?
Its value is 22.4 µM.

And the “Microsome Stability, % remaining” value [12]?
Its value is 38 ± 1.6%.

What about the IC50 [11] of the same molecule?
Its IC50 is > 50 µM.

Which IC50 ([2]; pNPP at Km of the PTP) does the source give for `O=C(O)C(=O)Nc1ccc(C#Cc2ccc3ccccc3c2)cc1` [Compound 4q, 2-((4-(naphthalen-2-ylethynyl)phenyl)amino)-2-oxoacetic Acid] here?
Its IC50 is > 50 µM.

What about the IC50 ([3]; pNPP at Km of the PTP) of the same molecule?
The IC50 was > 50 µM.

What about the IC50 ([4]; pNPP at Km of the PTP) of the same molecule?
The IC50 was > 50 µM.

What about the “solubility (in words)” value [28] of the same molecule?
Its value is “poor solubility”.

With `O=C(O)C(=O)Nc1ccc(C#Cc2ccc(OCc3ccccc3)cc2)cc1` [Compound 4r, 2-((4-((4-(benzyloxy)phenyl)ethynyl)phenyl)amino)-2-oxoacetic Acid] as the molecule, how does the IC50 ([2]; pNPP at Km of the PTP) read?
Its IC50 is 38.9 ± 5 µM.

What about the IC50 ([3]; pNPP at Km of the PTP) of the same molecule?
The IC50 was 15.3 ± 2.1 µM.

And the IC50 ([4]; pNPP at Km of the PTP)?
The IC50 was 16.8 ± 3.3 µM.

And the “solubility (in words)” value [28]?
The value was “poor solubility”.

Which IC50 ([2]; pNPP at Km of the PTP) does the source give for `O=C(O)C(=O)Nc1ccc(C#Cc2ccc(C(F)(F)F)cc2Cl)cc1` [Compound 4t, 2-((4-((2-chloro-4-(trifluoromethyl)phenyl)ethynyl)phenyl)amino)-2-oxoacetic Acid] here?
The IC50 was > 30 µM.

And the IC50 ([3]; pNPP at Km of the PTP)?
Its IC50 is > 30 µM.

What about the IC50 ([4]; pNPP at Km of the PTP) of the same molecule?
Its IC50 is > 30 µM.

What about the IC50 [5] of the same molecule?
The IC50 was > 30 µM.

And the IC50 [6]?
The IC50 was > 30 µM.

And the IC50 [7]?
Its IC50 is > 30 µM.

And the IC50 [9]?
The IC50 was > 30 µM.

What about the IC50 [10] of the same molecule?
Its IC50 is > 30 µM.

And the “Microsome Stability, % remaining” value [12]?
Its value is 56 ± 1.5%.

What about the IC50 [11] of the same molecule?
The IC50 was > 30 µM.
